Data on nine molecules can be found in patent publication US20140206678A1, “INHIBITORS OF MTOR KINASE AS ANTI -VIRAL AGENT” (KADMON CORPORATION, LLC, priority 2011, published 2014).

By IC50 is commonly meant the concentration needed to halve the response being measured.

Entries after “also recorded” stand apart in the source; their conditions may differ.

The subject of data set [1] is panel of 140 protein kinases. The conditions noted are these: read-out: IC50 against panel of 140 protein kinases; cited from earlier work.
In the next data set the test system is HCMV strain AD169. Briefly: HCMV AD169 replication in human fibroblasts with 4-PBA alone or with mTOR inhibitors, TCID50. The data set is classed as cell-based, human cytomegalovirus.
The test system of data set [2] is confluent human fibroblasts. Nature of the data set: Trypan blue exclusion viability of confluent human fibroblasts (4-PBA). The conditions noted are these: highest dose tested; eight days. It counts as cell-based. As to the method:
FIG. 11. 4-PBA is not toxic to uninfected or infected confluent human fibroblasts. (A) Fibroblasts were maintained in medium containing the indicated concentrations of 4-PBA for 8 days. The medium was replaced every other day throughout the time course. At the end of the treatment period, cell viability was measured by the trypan blue exclusion assay. Date points represent the mean of duplicate wells. (B) Fibroblasts were infected with HCMV at a multiplicity of 0.1 pfu/cell. Cells were fed every other day with fresh medium containing the indicated concentration of 4-PBA. At eight days post infection, cells were washed once with media, and then media lacking drug was added. Eight days later (16 days post infection) cell free virus in the supernatant was quantitated by the TCID50 method. Date points represent the mean of duplicate wells.
Two experiments were performed to rule out the possibility that 4-PBA is simply toxic to the cells and inhibits HCMV indirectly by reducing cell viability (FIG. 11). In the first experiment (FIG. 11A) an assay for cell viability was performed on confluent human fibroblasts treated for eight days with different concentrations of the drug. The highest dose of the drug tested had no effect on cellular viability in the trypan blue exclusion assay. […] Then the drug was removed and the yield of virus was determined 8 days later.

Data set [3] relates to HCMV. Nature of the data set: HCMV yield in MRC5 fibroblasts at 96 hours post-infection (mTOR inhibitors). It counts as cell-based, human cytomegalovirus. The conditions noted are these: 0.5 pfu/cell, up to 5 μM.
Data set [4] has as its system HCMV. Briefly: HCMV multistep growth in serum-starved human fibroblasts, cell-free virus by TCID50. It counts as cell-based, human cytomegalovirus. The conditions noted are these: day 10; rapamycin 20 nM, Torin1 250 nM; 0.05 PFU/cell.
The subject of a further data set is MCMV. Nature of the data set: MCMV replication in mouse embryo fibroblasts, TCID50. It counts as cell-based, murine cytomegalovirus. The conditions noted are these: wild-type MEFs; rapamycin 20 nM, Torin1 250 nM; 0.05 PFU/cell.
For another data set, the system named is PI3Ks. The conditions noted are these: cited from earlier work.
The target of a further data set is mTOR (Homo sapiens, UniProt P42345). The conditions noted are these: read-out: IC50 (selective mTOR inhibitors); cited from earlier work.

As for `Cc1c(C(=O)N2CCOc3ccc(-c4ccc(N)nc4)cc3C2)ccc(S(C)(=O)=O)c1F` [XL388], in data set [1], the IC50 is more than 3000 nM.
As for `O=C([O-])CCCc1ccccc1.[Na+]` [4-PBA, sodium 4-phenylbutyrate], the “virus yield 8 days after drug removal” value in the data set on HCMV strain AD169 (all doses tested, 8-day treatment, 16 days post infection) was “recovered and produced a normal yield”. In the data set on HCMV strain AD169 (dose-dependent, day 8 post infection, 0.1 pfu/cell), the HCMV virus replication entry is reported as “effectively inhibited; also recorded: inhibited virus production”. In addition, in data set [2], the “cellular viability, trypan blue exclusion assay” value is on record as “no effect”.
As for `Cn1c(=O)n(-c2ccc(C(C)(C)C#N)cc2)c2c3cc(-c4cnc5ccccc5c4)ccc3ncc21` [BEZ235], in the data set with HCMV [3], the “HCMV virus production (yield as percentage of untreated cells)” value is listed as “inhibit virus production”.
Consider `CO[C@H]1C[C@@H]2CC[C@@H](C)[C@@](O)(O2)C(=O)C(=O)N2CCCC[C@H]2C(=O)O[C@H]([C@H](C)C[C@@H]2CC[C@@H](O)[C@H](OC)C2)CC(=O)[C@H](C)/C=C(\C)[C@@H](O)[C@@H](OC)C(=O)[C@H](C)C[C@H](C)/C=C/C=C/C=C/1C` [rapamycin], for which the “reduction of HCMV yield” value in the data set on HCMV [4] is on record as approximately 8 fold. Also, the MCMV replication result with MCMV was “no inhibitory effect”.
`O=C(Nc1ccc(-c2nc(N3CC4CCC(C3)O4)c3sccc3n2)cc1)NC1CC1` [Wyeth-BMCL-200910075-9b]: the “fold selective versus PI3Ks (PI3K)” value with PI3Ks is on record as > 1,000 fold. Also, the concentration for half-maximal inhibition (IC50) at mTOR is 0.7 nM.
In the case of `CN1CCN(C(=O)c2ccc(NC(=O)Nc3ccc(-c4nc(N5CCOCC5)cc(N5C[C@H]6CC[C@@H](C5)O6)n4)cc3)cc2)CC1` [Wyeth—Compound 27], in the data set on HCMV [3], the “HCMV virus production (yield as percentage of untreated cells)” value is reported as “inhibit virus production”.
Regarding `COc1cc(-c2cn(-c3nc(N4CCOCC4)nc(N4CCOCC4)n3)cn2)cc(OC)c1O` [KU-BMCL-200908069-5], the “fold selective versus PI3Ks (PI3K)” value with PI3Ks is given as more than 500 fold.
Turning to `CC(C)n1nc(-c2ccc3oc(N)nc3c2)c2c(N)ncnc21` [INK128], in the data set on HCMV [3], the “HCMV virus production (yield as percentage of untreated cells)” value is on record as “inhibit virus production”.
With `CNC(=O)Nc1ccc(-c2nc(N3C[C@H]4CC[C@@H](C3)O4)c3cnn(C4CCC5(CC4)OCCO5)c3n2)cc1` [WYE-125132], the “fold selective versus PI3Ks (PI3K)” value with PI3Ks is listed as > 5,000 fold. Also, the IC50 at mTOR was 0.19 nM.
